Values belong to the molecule of their own block, whether it stands above or below them. Where a SMILES comes first, the peptide text is derived from it. Where no end group is shown, it is not given here. [ ]: non-standard residue; d: D form. Orn = NCCC[C@H](N)C(=O)O; Nva = CCC[C@H](N)C(=O)O
Assays:
HLA-A*0201 = HLA-A*0201 (Homo sapiens, UniProt P04439, D140Y/D185E/D98H/E176V/E277Q/G131W/G231S/I119V/I121R/I166T/I218V/L300P/L318F/N151K/N90K/P208A/P217A/Q86G/Q94H/R138H/R169H/T345S); test: ED50 (M)
[1] = test system: T cell lines specific for the native epitope (PRAME425-433); test: Cross-reactivity of PRAME 425-433 analogs: IFN-gamma secretion from T cell lines specific for the native epitope; assay type: cell-based, HHD transgenic mice; settings: analog peptide at approximately 0.3 μM
Description: The analogs listed in FIGS. 26-28 were tested for various properties such as improved affinity and stability of binding, cross-reactivity with the native epitope, and immunogenicity as follows in Examples 40-48. […] The observed affinities of the analogs are reported as % binding (compared to the positive control) and ED50s. Stability of binding as half time of dissociation. Cross reactivity with the native epitope was assessed by using the analog peptides to stimulate IFG-gamma secretion from a T cell lines specific for the native epitope, essentially as described in Example 6. The data shown in FIGS. 26-28 were generated by stimulating with analog peptide at approximately 0.3 μM. […] In some cases the reported values are the average of two determinations.

[2] = test system: T cells specific for the wild-type NY-ESO-1157-165 epitope; test: Cross-reactivity and functional avidity of NY-ESO-1 157-165 analogs (IFN-gamma, T cells specific for the wild-type epitope); assay type: cell-based, HHD transgenic mice; settings: IFN-gamma production ex vivo
HLA-A*0201 on T2 cells = target: T1, HLA-A*0201 on T2 cells (human); test: T2 cell binding assay (flow cytometry)
T1 construct: Class I MHC stabilised on T2 cells by added peptide, detected with a fluorescent anti-A2 antibody; also called HLA-A2; MHC class I (A2 allele)

Molecule: CCC[C@H](NC(=O)CNC(=O)[C@@H](NC(=O)[C@H](CC(C)C)NC(=O)[C@H](Cc1c[nH]cn1)NC(=O)[C@H](CCC(N)=O)NC(=O)[C@H](CC(C)C)NC(=O)[C@H](CC(C)C)NC(=O)[C@@H](N)CO)[C@@H](C)CC)C(=O)O [18 | Prame 425-433 (L433(Nva))] (H-SLLQHLIG[Nva]-OH; N-terminus and C-terminus assumed)
EC50 (HLA-A*0201): 1660 nM

Molecule: YLLQHLIGL [10 | Prame 425-433 (S425Y)]
EC50 (HLA-A*0201): 550 nM

Molecule: Lys P1 analog: PRAME 425-433 analog with Lys for the Ser at the P1 position (KLLQHLIGL; UniProt P78395 425-433, looked up, variant S425K)
IFN-γ elicited, as percent of the native peptide [1]: 40%

Molecule: CC[C@H](C)[C@H](NC(=O)[C@H](CC(C)C)NC(=O)[C@H](Cc1c[nH]cn1)NC(=O)[C@H](CCC(N)=O)NC(=O)[C@H](CC(C)C)NC(=O)[C@H](CC(C)C)NC(=O)[C@@H](N)CCCN)C(=O)NCC(=O)N[C@@H](CC(C)C)C(=O)O [12 | Prame 425-433 (S425(Orn))] (H-[Orn]LLQHLIGL-OH; N-terminus and C-terminus assumed)
EC50 (HLA-A*0201): 2250 nM

EC50 (HLA-A*0201): 1450 nM
Molecule: TLLQHLIGL [11 | Prame 425-433 (S425T)]

Molecule: CCC[C@H](NC(=O)[C@@H](N)CO)C(=O)N[C@@H](CC(C)C)C(=O)N[C@@H](CCC(N)=O)C(=O)N[C@@H](Cc1c[nH]cn1)C(=O)N[C@@H](CC(C)C)C(=O)N[C@H](C(=O)NCC(=O)N[C@@H](CC(C)C)C(=O)O)[C@@H](C)CC [6 | Prame 425-433 (L426(Nva)), S(Nva)LQHLIGL] (H-S[Nva]LQHLIGL-OH; N-terminus and C-terminus assumed)
EC50 (HLA-A*0201): 1910 nM

EC50 (HLA-A*0201): 988 nM
Molecule: SMLQHLIGL [3 | Prame 425-433 (L426M)]

Molecule: FLLQHLIGL [9 | Prame 425-433 (S425F)]
EC50 (HLA-A*0201): 434 nM

Molecule: NY-ESO-1157-166: 10-mer of the wild-type NY-ESO-1 sequence, residues 157-166 (SLLMWITQCF; UniProt P78358 157-166, looked up, fragment)
Activity in the cross-reactivity/functional avidity assay relative to wild-type NY-ESO-1 157-165, in words [2]: showed no immunological activity

binding result (HLA-A*0201 on T2 cells): no binding
B1: SSX-2 41-49-NH2 (A42V) (peptide)
peptide: KVSEKIFYX
modifications: C-terminal amide

Reference: patent US20060063913A1, “SSX-2 peptide analogs” (priority 2004, published 2006)
